The values that follow come from patent US20100143455A1, “Triazole antifungal agents” (priority 2008, published 2010).

In experiment [1] the test system is Ergosterol Biosynthesis, Candida albicans_C286. The experiment in a line: Inhibition of ergosterol biosynthesis. To be noted: RPMI-1640, 30° C., 48 h, read-out: IC50 Values for Inhabitation of Ergosterol Biosynthesis. Type of experiment: cell-based, Candida albicans. The method, then: (§1) Compounds of the invention were tested for their ability to inhibit ergosterol biosynthesis. Testing was performed in 96-well round-bottom microtitration plates. Cell suspensions were prepared in RPMI-1640 medium and were adjusted to give a final inoculum concentration of 0.5×10^3 to 2.5×10^3 cells/ml. The plates were incubated incubated at 30° C. for 48 h before growth was assessed. The MIC of each compounds was defined as the lowest concentration at which there was 80% inhibition of growth compared with that in a drug-free control [O. N. Breivik and J. L. Owades, Agric. Food Chem., 5 (1957) 360-363; T. F. Patterson, S. G. Revankar, W. R. Kirkpatrick, O. Dib, A. W. Fothergill, S. W. Redding, D. A. Sutton and M. G. Rinaldi, J. Clin. Microbiol., 34 (1996) 1794-1797]. Ergosterol content was calculated as a percentage of the wet weight of the cell [National Committee for Clinical Laboratory Standards. 1997. Reference method for broth dilution antifungal susceptibility testing of yeasts, Approved standard. Document M27-A, National Committee for Clinical Laboratory Standards, Wayne, Pa.].

The next experiment concerns Cryptococcus neoformans. The experiment in a line: In vitro activity test, agar dilution method (GMMIC). Type of experiment: cell-based. To be noted: 10 organisms, Kimmig's agar, 25° C. The procedure: (§2) Organisms listed in Table 4 were tested according to an agar dilution method: Suspensions of each microorganism were prepared to contain […] colony forming units (cfu)/mL. All drugs were dissolved in a few drops of DMSO then diluted with ethanol—water (1/1, v/v) to make a stock solution of 500 μg/mL. The agar dilution method was performed in a medium of Kimmig's agar (K. A., Merck) −0.5% glycerol [R. A. Fromtling, G. K. Abruzzo and A. Ruiz, Mycopathologia, 106 (1989) 163-166]. Plates of Kimmig's agar containing serial dilutions (25 to 0.01 μg/mL) of the drugs were inoculated with 10 μL of the fungal inocula and incubated at 25° C. […] for yeasts and up to 5 days for filamentous fungi. Following incubation, GMMICs (geometric mean minimum inhibitory concentration μg/mL) were determined. In the table POCZ indicates posaconazole, ITRZ indicates itraconazole, and FLUZ indicates fluconazole. [Patterson, T. F., S. G. Revankar, W. R. Kirkpatrick, O. Dib, A. W. Fothergill, S. W. Redding, D. A. Sutton, and M. G. Rinaldi, J. Clin. Microbiol. 34 (1996) 1794-1797].
(Agar dilution tests growth on a series of plates holding different concentrations.)

Another experiment deals with Trichophyton rubrum. The description is as above. To be noted: 17 organisms, Kimmig's agar, 25° C. The class given is cell-based. The procedure:
as §2

For another experiment, the system named is Candida Krusei. The experiment is described as above. As to conditions: 22 organisms, Kimmig's agar, 25° C. Type of experiment: cell-based. The procedure: as §2
A further experiment relates to Microsporum canis. The experiment is described as above. The class given is cell-based. To be noted: 6 organisms, Kimmig's agar, 25° C. The method, then: as §2
For another experiment, the system named is Aspergillus Flavus. The description is as above. The class given is cell-based. As to conditions: 9 organisms, Kimmig's agar, 25° C. The method, then: as §2
Experiment [2] deals with Ergosterol Biosynthesis, Aspergillus fumigatus_ND 158. The experiment in a line: Inhibition of ergosterol biosynthesis. Type of experiment: cell-based, Aspergillus fumigatus. As to conditions: RPMI-1640, 30° C., 48 h, read-out: IC50 Values for Inhabitation of Ergosterol Biosynthesis. The procedure:
as §1

With `CC(O)C(C)n1ncn(-c2ccc(N3CCN(c4ccc(SCC5OCC(Cn6cncn6)(c6ccc(F)cc6F)O5)cc4)CC3)cc2)c1=O` (centres unmarked) [I-Re (D), 4-(4-(4-(4-((4-((1H-1,2,4-triazol-1-yl)methyl)-4-(2,4-difluorophenyl)-1,3-dioxolan-2-yl)methylthio)phenyl)piperazin-1-yl)phenyl)-1-(3-hydroxybutan-2-yl)-1H-1,2,4-triazol-5(4H)-one], the IC50 in experiment [1] came out at 31.9 nM.
For `CCC(C)n1ncn(-c2ccc(N3CCN(c4ccc(OCC5COC(Cn6cncn6)(c6ccc(Cl)cc6Cl)O5)cc4)CC3)cc2)c1=O` (centres unmarked) [ITRZ, itraconazole], the “GMMICS (geometric mean minimum inhibitory concentration)” value in the experiment with Cryptococcus neoformans came out at 0.49 µg/mL; in the experiment with Trichophyton rubrum, 3.1 µg/mL; with Candida Krusei, 0.60 µg/mL; with Microsporum canis it was 1.2 µg/mL; with Aspergillus Flavus, 0.35 µg/mL.
In the case of `C=CC(C)n1ncn(-c2ccc(N3CCN(c4ccc(SCC5OCC(Cn6cncn6)(c6ccc(F)cc6F)O5)cc4)CC3)cc2)c1=O` (centres unmarked) [I-Rg (D), 4-(4-(4-(4-((4-((1H-1,2,4-triazol-1-yl)methyl)-4-(2,4-difluorophenyl)-1,3-dioxolan-2-yl)methylthio)phenyl)piperazin-1-yl)phenyl)-1-(but-3-en-2-yl)-1H-1,2,4-triazol-5(4H)-one], the IC50 in experiment [2] worked out at 10.2 nM; in experiment [1] it was 33.8 nM.
As to `CCC(C)n1ncn(-c2ccc(N3CCN(c4ccc(CSC5OCC(Cn6cncn6)(c6ccc(F)cc6F)O5)cc4)CC3)cc2)c1=O` (centres unmarked) [II-Ra (D), 4-(4-(4-(4-((4-((1H-1,2,4-triazol-1-yl)methyl)-4-(2,4-difluorophenyl)-1,3-dioxolan-2-ylthio)methyl)phenyl)piperazin-1-yl)phenyl)-1-sec-butyl-1H-1,2,4-triazol-5(4H)-one], the IC50 in experiment [2] came to 10.3 nM; in experiment [1], 34.3 nM.
The like results for `CCC(C(C)O)n1ncn(-c2ccc(N3CCN(c4ccc(CSC5CCC(Cn6cncn6)(c6ccc(F)cc6F)O5)cc4)CC3)cc2)c1=O` (centres unmarked) [II-Rf (T), 4-(4-(4-(4-((5-((1H-1,2,4-triazol-1-yl)methyl)-5-(2,4-difluorophenyl)tetrahydrofuran-2-ylhio)methyl)phenyl)piperazin-1-yl)phenyl)-1-(2-hydroxypentan-3-yl)-1H-1,2,4-triazol-5(4H)-one] were, in that order, 9.3 nM and 32.9 nM.
For `CCC(C(C)O)n1ncn(-c2ccc(N3CCN(c4ccc(SCC5OCC(Cn6cncn6)(c6ccc(F)cc6F)O5)cc4)CC3)cc2)c1=O` (centres unmarked) [I-Rf (D), 4-(4-(4-(4-((4-((1H-1,2,4-triazol-1-yl)methyl)-4-(2,4-difluorophenyl)-1,3-dioxolan-2-yl)methylthio)phenyl)piperazin-1-yl)phenyl)-1-(2-hydroxypentan-3-yl)-1H-1,2,4-triazol-5(4H)-one], the figures for the IC50 in experiment [2] and in experiment [1] were 9.9 nM and 33.4 nM, respectively.
Consider `CC[C@@H]([C@H](C)O)n1ncn(-c2ccc(N3CCN(c4ccc(OC[C@@H]5CO[C@@](Cn6cncn6)(c6ccc(F)cc6F)C5)cc4)CC3)cc2)c1=O` [POCZ, posaconazole, reference compound], for which, in experiment [2], the IC50 was 11.8 nM.
`CCC(C(C)O)n1ncn(-c2ccc(N3CCN(c4ccc(CSC5OCC(Cn6cncn6)(c6ccc(F)cc6F)O5)cc4)CC3)cc2)c1=O` (centres unmarked) [II-Rf (D), 4-(4-(4-(4-((4-((1H-1,2,4-triazol-1-yl)methyl)-4-(2,4-difluorophenyl)-1,3-dioxolan-2-ylthio)methyl)phenyl)piperazin-1-yl)phenyl)-1-(2-hydroxypentan-3-yl)-1H-1,2,4-triazol-5(4H)-one]: the IC50 in experiment [2] was 9.8 nM; in experiment [1] it was 31.1 nM.
Regarding `CC(O)C(C)n1ncn(-c2ccc(N3CCN(c4ccc(SCC5CCC(Cn6cncn6)(c6ccc(F)cc6F)O5)cc4)CC3)cc2)c1=O` (centres unmarked) [I-Re (T), 4-(4-(4-(4-((5-((1H-1,2,4-triazol-1-yl)methyl)-5-(2,4-difluorophenyl)tetrahydrofuran-2-yl)methylthio)phenyl)piperazin-1-yl)phenyl)-1-(3-hydroxybutan-2-yl)-1H-1,2,4-triazol-5(4H)-one], the IC50 in experiment [2] worked out at 9.6 nM.
For `CCC(C(C)O)n1ncn(-c2ccc(N3CCN(c4ccc(SCC5CCC(Cn6cncn6)(c6ccc(F)cc6F)O5)cc4)CC3)cc2)c1=O` (centres unmarked) [I-Rf (T), 4-(4-(4-(4-((5-((1H-1,2,4-triazol-1-yl)methyl)-5-(2,4-difluorophenyl)tetrahydrofuran-2-yl)methylthio)phenyl)piperazin-1-yl)phenyl)-1-(2-hydroxypentan-3-yl)-1H-1,2,4-triazol-5(4H)-one], the IC50 was 9.5 nM in experiment [2] and 32.1 nM in experiment [1].

The term IC50 denotes the concentration at which inhibition is half-maximal.
